One may read the IC50 as the point on the concentration scale where inhibition reaches its midpoint.

Structures are written as SMILES. Bounds are passed on as bounds.

Twelve molecules from patent publication US12486251B2 (PHARMABLOCK SCIENCES (NANJING) , INC., priority 2020, dated 2025) can be followed below.

Chain of CBP recombinant proteins (Q92793 whole entry): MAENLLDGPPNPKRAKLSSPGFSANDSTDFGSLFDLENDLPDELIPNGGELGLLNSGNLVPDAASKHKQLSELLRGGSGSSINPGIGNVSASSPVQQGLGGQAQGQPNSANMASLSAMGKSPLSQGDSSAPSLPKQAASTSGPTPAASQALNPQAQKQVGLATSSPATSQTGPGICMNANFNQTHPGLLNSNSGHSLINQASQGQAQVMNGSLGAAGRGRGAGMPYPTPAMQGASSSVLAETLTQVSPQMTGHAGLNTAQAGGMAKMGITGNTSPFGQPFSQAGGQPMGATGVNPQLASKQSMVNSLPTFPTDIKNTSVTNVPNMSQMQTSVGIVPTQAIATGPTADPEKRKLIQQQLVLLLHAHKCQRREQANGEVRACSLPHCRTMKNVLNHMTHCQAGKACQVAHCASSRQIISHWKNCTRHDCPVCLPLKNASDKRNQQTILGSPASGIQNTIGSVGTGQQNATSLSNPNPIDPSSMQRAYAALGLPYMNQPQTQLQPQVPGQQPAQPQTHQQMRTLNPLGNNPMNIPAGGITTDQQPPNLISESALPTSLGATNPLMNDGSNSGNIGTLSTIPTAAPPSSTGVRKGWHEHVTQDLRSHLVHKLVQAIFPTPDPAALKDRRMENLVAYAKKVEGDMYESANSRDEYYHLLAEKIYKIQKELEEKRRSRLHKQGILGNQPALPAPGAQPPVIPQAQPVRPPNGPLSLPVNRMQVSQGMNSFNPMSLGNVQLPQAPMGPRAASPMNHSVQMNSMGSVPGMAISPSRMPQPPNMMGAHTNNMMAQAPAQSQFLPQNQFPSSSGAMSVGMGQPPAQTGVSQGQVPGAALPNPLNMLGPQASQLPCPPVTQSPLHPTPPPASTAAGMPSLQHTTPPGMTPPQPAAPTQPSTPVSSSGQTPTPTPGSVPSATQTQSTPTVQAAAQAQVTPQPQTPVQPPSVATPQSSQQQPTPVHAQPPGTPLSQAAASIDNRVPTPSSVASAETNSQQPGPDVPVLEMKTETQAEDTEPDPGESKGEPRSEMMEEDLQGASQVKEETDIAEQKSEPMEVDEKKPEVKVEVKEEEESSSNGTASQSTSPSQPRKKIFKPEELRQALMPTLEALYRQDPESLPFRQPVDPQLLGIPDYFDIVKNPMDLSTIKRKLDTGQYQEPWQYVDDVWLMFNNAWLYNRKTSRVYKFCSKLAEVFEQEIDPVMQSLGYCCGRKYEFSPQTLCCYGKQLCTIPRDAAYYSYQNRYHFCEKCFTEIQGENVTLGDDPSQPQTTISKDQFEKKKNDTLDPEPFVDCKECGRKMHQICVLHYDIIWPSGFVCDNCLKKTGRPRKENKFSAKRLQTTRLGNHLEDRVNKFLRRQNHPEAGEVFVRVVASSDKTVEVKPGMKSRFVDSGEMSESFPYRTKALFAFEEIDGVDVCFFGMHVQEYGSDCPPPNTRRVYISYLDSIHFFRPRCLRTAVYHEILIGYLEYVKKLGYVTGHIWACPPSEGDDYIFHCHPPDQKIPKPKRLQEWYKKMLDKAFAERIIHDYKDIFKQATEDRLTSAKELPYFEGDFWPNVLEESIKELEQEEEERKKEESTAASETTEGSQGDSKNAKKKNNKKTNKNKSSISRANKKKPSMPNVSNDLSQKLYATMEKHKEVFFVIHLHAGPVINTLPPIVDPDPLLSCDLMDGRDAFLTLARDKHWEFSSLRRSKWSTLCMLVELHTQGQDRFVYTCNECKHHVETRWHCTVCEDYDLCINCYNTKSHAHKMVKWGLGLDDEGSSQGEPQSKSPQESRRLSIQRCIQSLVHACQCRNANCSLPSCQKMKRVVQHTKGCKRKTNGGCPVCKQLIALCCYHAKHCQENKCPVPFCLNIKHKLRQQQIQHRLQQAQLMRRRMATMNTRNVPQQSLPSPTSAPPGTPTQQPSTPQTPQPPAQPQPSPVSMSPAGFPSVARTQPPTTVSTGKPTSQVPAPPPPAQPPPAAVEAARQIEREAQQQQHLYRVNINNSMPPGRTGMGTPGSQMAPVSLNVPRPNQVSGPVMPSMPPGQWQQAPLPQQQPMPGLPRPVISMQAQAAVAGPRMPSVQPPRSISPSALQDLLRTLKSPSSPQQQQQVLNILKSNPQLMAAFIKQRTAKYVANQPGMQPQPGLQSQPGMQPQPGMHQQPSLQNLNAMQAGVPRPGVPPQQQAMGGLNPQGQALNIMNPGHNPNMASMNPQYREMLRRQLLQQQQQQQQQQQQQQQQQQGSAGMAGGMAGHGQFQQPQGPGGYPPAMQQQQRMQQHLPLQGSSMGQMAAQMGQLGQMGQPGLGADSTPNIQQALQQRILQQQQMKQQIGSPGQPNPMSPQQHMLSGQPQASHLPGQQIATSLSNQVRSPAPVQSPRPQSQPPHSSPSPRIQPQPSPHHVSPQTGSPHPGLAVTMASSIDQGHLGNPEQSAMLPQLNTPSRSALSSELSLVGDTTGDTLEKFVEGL

This test has as its target CBP recombinant proteins (Homo sapiens (Human), UniProt Q92793). The test can be described thus: Competitive HTRF assay for affinity to CBP recombinant protein. The class given is binding. As to conditions: His-tagged CBP 5 nM, biotin-labeled ligand 50 nM, 1% DMSO. The procedure: The affinity of the compounds synthesized in the present patert to the CBP recombinant proteins was determined by competitive HTRF method. His-tagged cyclic adenosine monophosphate response element binding protein (CREB-binding protein, CBP) was expressed in Escherichia coli system and further purified. CBP biotinylated ligands were all self-made. The BL21 star (DE3) competert cells transfected with His-tagged CBP protein genes at N-terminal were cultured at 37° C. for 16 h until the OD value was between 0.6 and 0.8, induced by 0.5 mM of IPTG and cultured overnight. The supernatant of cell lysate was purified by a Ni-ion affinity column and a Superdex75 molecular sieve column sequentially. The purity of resulting CBP proteins was 95%. The fluorescent donor reagent MAb Anti 6HIS—Eu cryptate Gold (Cisbio #61HI2KLA), the receptor reagent Streptavidin-XL665 (#610SAXLA) and the detection buffer (#62SDBRDD) required for HTRF were obtained from CISBIO BIOASSAYS (Codolet, France). Tris(2-carboxyethyl)phosphine hydrochloride (TCEP), sodium chloride, adenosine triphosphate (ATP), Tween-20, dimethylsulfoxide (DMSO), bovine serum albumin (BSA) and HEPES buffer were obtained from SIGMA at the highest level commercially available.
The general procedure of the competitive HTRF assay for the affinity to CBP recombinant proteins is as follows: 0.05% Tween-20 and 1 mM of TCEP were added immediately before the assay, and the assay was performed in a buffer consisting of 0.1 mg/ml BSA, 50 mM of HEPES and 5 mM of NaCl of pH 7.5. 2.5 μL of compound solution in a determination buffer with 4% DMSO and 5 μL of CBP solution in a determination buffer were added to a white low-volume 384-well microtiter plate, incubated at room temperature for 20 min, and then incubated at room temperature for 40 min by adding 2.5 μL of biotin-labeled ligand solution to the determination buffer. The final concentrations of CBP, biotin-labeled ligand and DMSO were 5 nM, 50 nM and 1%, respectively. Then, 5 μL of MAb Anti 6HIS—Eu cryptate Gold and […] of Streptavidin-XL665 in detection buffers from the manufacturer were added to the mixture, and the mixture was incubated for another 60 min. The final concentration of Streptavidin-XL665 was 12.5 nM, and MAb Anti 6HIS—Eu cryptate Gold was diluted according to the final concentration provided by the supplier. The multimode reader Spark from TECAN (Mannedorf, Switzerland) was used to read the plate to detect the homogeneous time-resolved fluorescence intensity of two groups, in which the excitation wavelength was 320 nm and the emission wavelengths were 665 nm and 620 nm. The IC50 value of the inhibitor was obtained by fitting fluorescence intensity ratios at 665 nm/620 nm with respect to the inhibitor concentration in an S-shaped dose-response curve by using Prism 7 (La Jolla, 15 CA).
Background: In TR-FRET formats the signal depends on donor and acceptor labels being close together.
Take `CNC(=O)c1cc2ccccc2c(N2CCCc3cc(-c4cnn(C)c4)ccc32)n1` [Example 1, 1-[6-(1-methyl-1H-pyrazol-4-yl)-3,4-dihydro-2H-quinolin-1-yl]-isoquinoline-3-carboxylic acid methylamide]: the IC50 amounted to 72 nM. For `CNC(=O)c1cc2ccccc2c(N2CCCc3cc(-c4cnn(C)c4)c(C(F)F)cc32)n1` [Example 2, 1-[7-difluoromethyl-6-(1-methyl-1H-pyrazol-4-yl)-3,4-dihydro-2H-quinolin-1-yl]isoquinoline-3-carboxylic acid methylamide], the concentration for half-maximal inhibition (IC50) was 19 nM. For `Cn1cc(-c2cc3c(cc2C(F)F)N(c2nc(C(N)=O)cc4ccccc24)CCC3)cn1` [Example 3, 1-[7-difluoro-methyl-6-(1-methyl-1H-pyrazol-4-yl)-3,4-dihydro-2H-quinolin-1-yl]-isoquinoline-3-carboxylic acid amide] the value was 245 nM. With `CN(C)C(=O)c1cc2ccccc2c(N2CCCc3cc(-c4cnn(C)c4)c(C(F)F)cc32)n1` [Example 4, 1-[7-difluoro-methyl-6-(1-methyl-1H-pyrazol-4-yl)-3,4-dihydro-2H-quinolin-1-yl]-isoquinoline-3-carboxylic acid dimethylamide], the IC50 is above 1000 nM.

Regarding `CCNC(=O)c1cc2ccccc2c(N2CCCc3cc(-c4cnn(C)c4)c(C(F)F)cc32)n1` [Example 5, 1-[7-difluoro-methyl-6-(1-methyl-1H-pyrazol-4-yl)-3,4-dihydro-2H-quinolin-1-yl]-isoquinoline-3-carboxylic acid ethylamide], the concentration for half-maximal inhibition (IC50) is above 1000 nM.

On to `Cn1cc(-c2cc3c(cc2C(F)F)N(c2nc(C(=O)NCCO)cc4ccccc24)CCC3)cn1` [Example 6, 1-[7-difluoro-methyl-6-(1-methyl-1H-pyrazol-4-yl)-3,4-dihydro-2H-quinolin-1-yl]-isoquinoline-3-carboxylic acid(2-hydroxy-ethyl)-amide], for which the 50% inhibitory concentration (IC50) was above 1000 nM. On to `CC(O)CNC(=O)c1cc2ccccc2c(N2CCCc3cc(-c4cnn(C)c4)c(C(F)F)cc32)n1` (stereo not drawn) [Example 7, 1-[7-difluoro-methyl-6-(1-methyl-1H-pyrazol-4-yl)-3,4-dihydro-2H-quinolin-1-yl]-isoquinoline-3-carboxylic acid(2-hydroxy-propyl)-amide], for which the IC50 is above 1000 nM. For `Cn1cc(-c2cc3c(cc2C(F)F)N(c2nc(C(=O)N4CC(O)C4)cc4ccccc24)CCC3)cn1` [Example 8, {1-[7-difluoro-methyl-6-(1-methyl-1H-pyrazol-4-yl)-3,4-dihydro-2H-quinolin-1-yl]-isoquinolin-3-yl}-(3-hydroxy-azetidine-1-yl)methanone] the value was above 1000 nM; for `Cn1cc(-c2cc3c(cc2C(F)F)N(c2nc(C(=O)NC4CC4)cc4ccccc24)CCC3)cn1` [Example 9, 1-[7-difluoro-methyl-6-(1-methyl-1H-pyrazol-4-yl)-3,4-dihydro-2H-quinolin-1-yl]-isoquinoline-3-carboxylic acid cyclopro-pylamide], above 1000 nM.

As for `CNC(=O)c1cccc(N2CCCc3cc(-c4cnn(C)c4)c(C(F)F)cc32)n1` [Example 11], the 50% inhibitory concentration (IC50) was above 1000 nM. For `CNC(=O)c1nc(N2CCCc3cc(-c4cnn(C)c4)c(C(F)F)cc32)c2ccccc2n1` [Example 12, 4-[7-difluoro-methyl-6-(1-methyl-1H-pyrazol-4-yl)-3,4-dihydro-2H-quinolin-1-yl]-quinazolin-2-carboxylic acid methylamide] the value was above 1000 nM; for `CNC(=O)c1cc2cnccc2c(N2CCCc3cc(-c4cnn(C)c4)c(C(F)F)cc32)n1` [Example 13, 2-[7-difluoro-methyl-6-(1-methyl-1H-pyrazol-4-yl)-3,4-dihydro-2H-quinolin-1-yl]-[2,6] naphthyridine-3-carboxylic acid methylamide], 21 nM.
